Laboratory results: US4831026A, “2-oxa-isocephem compounds, compositions containing same and processes of using” (Otsuka Pharmaceutical Co., Ltd., priority 1985, dated 1989)
Like-named read-outs stand apart in the source and are kept apart here.

Key:
S. aureus FDA-209-p = test: Antimicrobial activity test: MIC by the agar plate dilution method, S. aureus FDA-209-p; assay type: cell-based, Staphylococcus aureus; conditions: inoculum 1×10^6 cells/ml
Description: (§1) In order to investigate the in vitro activity of the under-mentioned compounds against various bacteria, the minimal inhibitory concentration (MIC) values were determined by the agar plate dilution method [see Chemotherapy, 22, 1126-1128 (1974)].
(§2) Each test inoculum was adjusted to 1×10^6 cells/ml (O.D., 600 mμ: 0.07-0.16).

E. coli NIHJ = test: Antimicrobial activity test: MIC by the agar plate dilution method, E. coli NIHJ; assay type: cell-based; conditions: inoculum 1×10^6 cells/ml
Description: as §1, §2

E. coli No. 29 = test: Antimicrobial activity test: MIC by the agar plate dilution method, E. coli No. 29; assay type: cell-based
Description: as §1, §2

P. aeruginosa NCTC-10490 = test: Antimicrobial activity test: MIC by the agar plate dilution method, P. aeruginosa NCTC-10490; assay type: cell-based; conditions: inoculum 1×10^6 cells/ml
Description: as §1, §2

K. pneumoniae NCTC-9632 = test: Antimicrobial activity test: MIC by the agar plate dilution method, K. pneumoniae NCTC-9632; assay type: cell-based; conditions: inoculum 1×10^6 cells/ml
Description: as §1, §2

M. morganii ATCC-25830 = test: Antimicrobial activity test: MIC by the agar plate dilution method, M. morganii ATCC-25830; assay type: cell-based; conditions: inoculum 1×10^6 cells/ml
Description: as §1, §2

S. marcescens IFO-12648 = test: Antimicrobial activity test: MIC by the agar plate dilution method, S. marcescens IFO-12648; assay type: cell-based
Description: as §1, §2

P. mirabilis 1287 = test: Antimicrobial activity test: MIC by the agar plate dilution method, P. mirabilis 1287; assay type: cell-based
Description: as §1, §2

[1] = E. coli No. 29, inoculum 1×10^6 cells/ml
[2] = S. marcescens IFO-12648, inoculum 1×10^6 cells/ml
[3] = P. mirabilis 1287, inoculum 1×10^6 cells/ml

Row | Substance | MIC (S. aureus FDA-209-p) | MIC (E. coli NIHJ) | MIC (E. coli No. 29; [1]) | MIC (P. aeruginosa NCTC-10490) | MIC (K. pneumoniae NCTC-9632) | MIC (M. morganii ATCC-25830) | MIC (S. marcescens IFO-12648; [2]) | MIC (P. mirabilis 1287; [3]) | MIC (S. marcescens IFO-12648) | MIC (E. coli No. 29) | MIC (P. mirabilis 1287)
1 | 7-[2-(2-Chloroacetamidothiazol-4-yl)-2-ethoxyiminoacetamido]-3-[(1,3,4-thiadiazol-2-yl)thiomethyl-]-Δ^3 -O-2-isocephem-4-carboxylic acid (syn-isomer) [Example 28] | 0.78 µg/mL | ≤ 0.025 µg/mL | ≤ 0.025 µg/mL | 1.56 µg/mL | 0.05 µg/mL | ≤ 0.025 µg/mL | 0.2 µg/mL | ≤ 0.025 µg/mL |  |  | 
2 | 7-[2-(2-Aminothiazol-4-yl)-2-benzyloxyiminoacetamido]-3-[(1,3,4-thiadiazol-2-yl)thiomethyl]-Δ^3 -O-2-isocephem-4-carboxylic acid trifluoroacetate (syn-isomer) [No. 13] | 0.1 µg/mL | ≤ 0.025 µg/mL | ≤ 0.025 µg/mL | 1.56 µg/mL | ≤ 0.025 µg/mL | ≤ 0.025 µg/mL | 0.1 µg/mL | ≤ 0.025 µg/mL |  |  | 
3 | 7-[2-(2-Aminothiazol-4-yl)-2-cyanomethyloxyiminoacetamido]-3-[(1,3,4-thiadiazol-2-yl)thiomethyl]-Δ^3 -O-2-isocephem-4-carboxylic acid trifluoroacetate (syn-isomer) [No. 11] | 0.78 µg/mL | 0.39 µg/mL | 0.2 µg/mL | 1.56 µg/mL | 0.39 µg/mL | 0.1 µg/mL | 1.56 µg/mL | 0.05 µg/mL |  |  | 
4 | (6S,7S)-7-[2-(2-Aminothiazol-4-yl)-2cyanomethoxyiminoacetamido]-3-[(1,3,4- thiadiazol-2-yl)thiomethyl]-Δ^3 -O-2-isocephem-4carboxylic acid trifluoroacetate (syn-isomer) [No. 16] | 0.39 µg/mL | 0.39 µg/mL | 0.2 µg/mL | 0.39 µg/mL | 0.39 µg/mL | 0.05 µg/mL |  | 0.1 µg/mL | 0.78 µg/mL |  | 
5 | 7-[2-(2-Formamidothiazol-4-yl)-2-methylthiomethoxyiminoacetamido]-3-[(1,3,4-thiadiazol-2-yl)thiomethyl]-Δ^3 -O-2-isocephem-4-carboxylic acid (syn-isomer) [Example 45] | 0.39 µg/mL | 0.39 µg/mL |  | 6.25 µg/mL | 0.39 µg/mL | 0.39 µg/mL |  | 0.2 µg/mL | 0.78 µg/mL | 0.39 µg/mL | 
6 | Benzhydryl 7-[2-(2-aminothiazol-4-yl)-2-cyclopropylmethyloxyiminoacetamido]-3-[(1,2,3-thiadiazol-5-yl)thiomethyl]-Δ^3 -O-2-isocephem-4-carboxylate (syn-isomer) [Example 56] | 0.05 µg/mL | 0.2 µg/mL | 0.1 µg/mL | 0.39 µg/mL | 0.39 µg/mL | 0.05 µg/mL |  | 0.2 µg/mL | 0.78 µg/mL |  | 
7 | 7-[2-(2-Aminothiazol-4-yl)-2-ethoxyiminoacetamido]-3-[(1,3,4-thiadiazol-2-yl)thiomethyl]-Δ^3 -O-2-isocephem-4-carboxylic acid (syn-isomer) [Example 29] | 0.05 µg/mL | ≤ 0.025 µg/mL | ≤ 0.025 µg/mL | 6.25 µg/mL | 0.05 µg/mL | ≤ 0.025 µg/mL | 0.2 µg/mL | ≤ 0.025 µg/mL |  |  | 
8 | 7-[2-(2-Aminothiazol-4-yl)-2-methylthiomethoxyiminoacetamido]-3-[(1,3,4-thiadiazol-2-yl)thiomethyl]-Δ^3 -O-2-isocephem-4-carboxylic acid (syn-isomer) [No. 12] | 0.2 µg/mL | ≤ 0.025 µg/mL | ≤ 0.025 µg/mL | 3.13 µg/mL | 0.05 µg/mL | ≤ 0.025 µg/mL | 0.1 µg/mL | ≤ 0.025 µg/mL |  |  | 
9 | 7-[2-(2-Trifluoroacetamidothiazol-4-yl)-2methoxyiminoacetamido]-3-[(carbamoyloxy)methyl]-Δ^3 -O-2-isocephem-4-carboxylic acid (syn-isomer) [No. 5] | > 100 µg/mL | 0.78 µg/mL |  | 100 µg/mL | 0.2 µg/mL | 0.2 µg/mL |  |  | 0.39 µg/mL | 0.78 µg/mL | 0.39 µg/mL
10 | 7-[2-(2-Aminothiazol-4-yl)-2-propargyloxyiminoacetamido]3-[(1,3,4-thiadiazol-2-yl)thiomethyl-66^3 -O-b 2-isocephem-4-carboxylic acid trifluoroacetate (syn-isomer) [No. 7] |  | ≤ 0.025 µg/mL | 0.1 µg/mL | 0.78 µg/mL | 0.1 µg/mL | 0.05 µg/mL | 0.2 µg/mL | ≤ 0.025 µg/mL |  |  | 
11 | Benzhydryl 7-[2-(2-tritylaminothiazol-4-yl)-2-[(2-butenyl)oxyimino]acetamido]-3-[(1,3,4-thiadiazol-2-yl)thiomethyl]-Δ^3 -O-2-isocephem-4-carboxylate (syn-isomer) [Example 37] | 0.78 µg/mL |  | 0.2 µg/mL | 1.56 µg/mL | 0.39 µg/mL | 0.78 µg/mL | 1.56 µg/mL | 0.2 µg/mL |  |  | 
12 | 7-[2-(2-Chloroacetamidothiazol-4-yl)-2-allyloxyiminoacetamido]-3-[(1,3,4-thiadiazol-2-yl)thiomethyl]-Δ^3 -O-2-isocephem-4-carboxylic acid (syn-isomer) [Example 15] | 0.39 µg/mL |  | ≤ 0.025 µg/mL | 0.78 µg/mL | 0.1 µg/mL | ≤ 0.025 µg/mL | 0.1 µg/mL | ≤ 0.025 µg/mL |  |  | 
13 | 7-[2-(Thiazol-4-yl)-2-carboxymethoxyiminoacetamido]-Δ^3 -O-2-isocephem-4-carboxylic acid (syn-isomer) [No. 6] | 0.39 µg/mL |  | 0.1 µg/mL | 12.5 µg/mL | 0.2 µg/mL | 0.05 µg/mL | 0.2 µg/mL | ≤ 0.025 µg/mL |  |  | 
14 | Benzyl 7-[2-(2-chloroacetamidothiazol-4-yl)-2-(tert-butoxycarbonylmethoxyimino)acetamido]-3-[(1,3,4-thiadiazol-2-yl)thiomethyl]-Δ^3 -O-2-isocephem-4carboxylate (syn-isomer) [Example 2] | 0.78 µg/mL |  | 0.05 µg/mL | 3.13 µg/mL | 0.2 µg/mL | ≤ 0.025 µg/mL | 0.2 µg/mL | ≤ 0.025 µg/mL |  |  | 
15 | Benzhydryl 7-[2-(2-tritylaminothiazol-4-yl)-2-(2fluoroethoxy)iminoacetamido-]-3-[(1,3,4-thiadiazol-2-yl)thiomethyl]-Δ^3 -O-2-isocephem-4-carboxylate (syn-isomer) [Example 48] | 0.78 µg/mL |  | ≤ 0.025 µg/mL | 6.25 µg/mL | 0.2 µg/mL | ≤ 0.025 µg/mL |  | ≤ 0.025 µg/mL | 0.39 µg/mL |  | 
16 | (6S,7S)-7-[2-(2-Aminothiazol-4-yl}-2methoxyiminoacetamido]-3-[(1,3,4-thiadiazol-2-yl)thiomethyl]-Δ^3 -O-2-isocephem-4-carboxylic acid trifluoroacetate (syn-isomer) [No. 15] |  | ≤ 0.025 µg/mL | ≤ 0.025 µg/mL | 1.56 µg/mL | ≤ 0.025 µg/mL | ≤ 0.025 µg/mL | 0.2 µg/mL | ≤ 0.025 µg/mL |  |  | 
17 | 7-[2-(2-Formamidothiazol-4-yl)-2-(2-chloroethoxy)iminoacetamido]-3-[(1,3,4- thiadiazol-2-yl)thiomethyl-]-Δ^3 -O-2-isocephem-4-carboxylic acid (syn-isomer) [Example 33] |  | 0.1 µg/mL | 0.2 µg/mL | 1.56 µg/mL | 0.1 µg/mL | 0.2 µg/mL |  | 0.05 µg/mL | 0.78 µg/mL |  | 
18 | Benzhydryl (6S,7S)-7-[2-(2-aminothiazol-4-yl)-2-methoxyiminoacetamido]-3-[(1,3,4-thiadiazol-2-yl)thiomethyl]-Δ^3 -O-2-isocephem-4-carboxylate (syn-isomer) [Example 59] | 0.39 µg/mL |  | ≤ 0.025 µg/mL | 25 µg/mL | ≤ 0.025 µg/mL | ≤ 0.025 µg/mL |  | ≤ 0.025 µg/mL | 0.39 µg/mL |  | 
19 | 7-[2-(2-Chloroacetamidothiazol-4-yl)-2-methoxyiminoacetamido]-3-[(carbamoyloxy)methyl]-Δ^3 -O-2-isocephem-4-carboxylic acid (syn-isomer) [Example 8] | 0.78 µg/mL |  | 0.2 µg/mL | 1.56 µg/mL | 0.2 µg/mL | 0.1 µg/mL |  | 0.05 µg/mL | 0.39 µg/mL |  | 
